Source: patent US9663530B2, “5-oxa-2-azabicyclo[2.2.2]OCTAN-4-yl and 5-oxa-2-azabicyclo[2.2.1]heptan-4-yl derivatives” (Hoffmann-La Roche Inc., priority 2014, dated 2017)

Legend:
mouse TAAR1 = mouse TAAR1 (Mus musculus (Mouse), UniProt Q923Y8); assay: Radioligand binding assay on mouse TAAR1; settings: mouse TAAR1 (first value of the cell); membranes of HEK-293 cells stably expressing mouse TAAR1; read-out: Ki (μM) mouse/rat
Method: (§1) Construction of TAAR Expression Plasmids and Stably Transfected Cell Lines
(§2) For the construction of expression plasmids the coding sequences of human, rat and mouse TAAR 1 were amplified from genomic DNA essentially as described by Lindemann et al.. The Expand High Fidelity PCR System (Roche Diagnostics) was used with 1.5 mM Mg^2+ and purified PCR products were cloned into pCR2.1-TOPO cloning vector (Invitrogen) following the instructions of the manufacturer. PCR products were subcloned into the pIRESneo2 vector (BD Clontech, Palo Alto, Calif.), and expression vectors were sequence verified before introduction in cell lines.
(§3) HEK293 cells (ATCC # CRL-1573) were cultured essentially as described by Lindemann et al. (2005). For the generation of stably transfected cell lines HEK293 cells were transfected with the pIRESneo2 expression plasmids containing the TAAR coding sequences (described above) with Lipofectamine 2000 (Invitrogen) according to the instructions of the manufacturer, and 24 hrs post transfection the culture medium was supplemented with 1 mg/ml G418 (Sigma, Buchs, Switzerland). After a culture period of about 10 d clones were isolated, expanded and tested for responsiveness to trace amines (all compounds purchased from Sigma) with the cAMP Biotrak Enzyme immunoassay (EIA) System (Amersham) following the non-acetylation EIA procedure provided by the manufacturer.
Radioligand Binding Assay on Mouse TAAR1
(§4) Membrane Preparation and Radioligand Binding.
HEK-293 cells stably expressing mouse TAAR1 were maintained at 37° C. and 5% CO2 in DMEM high glucose medium, containing fetal calf serum (10%, heat inactivated for 30 min at 56° C.), penicillin/streptomycin (1%), and 375 μg/ml geneticin (Gibco). Cells were released from culture flasks using trypsin/EDTA, harvested, washed twice with ice-cold PBS (without Ca^2+and Mg^2+), pelleted at 1,000 rpm for 5 min at 4° C., frozen and stored at −80° C. Frozen pellets were suspended in 20 ml HEPES-NaOH (20 mM, pH 7.4) containing 10 mM EDTA and homogenized with a Polytron (PT 6000, Kinematica) at 14,000 rpm for 20 s. The homogenate was centrifuged at 48,000×g for 30 min at 4° C. Subsequently, the supernatant was removed and discarded, and the pellet resuspended in 20 ml HEPES-NaOH (20 mM, pH 7.4) containing 0.1 mM EDTA using the Polytron (20 s at 14,000 rpm). This procedure was repeated and the final pellet resuspended in HEPES-NaOH containing 0.1 mM EDTA and homogenized using the Polytron. Typically, aliquots of 2 ml membrane portions were stored at −80° C. With each new membrane batch the dissociation constant (Kd) was determined via a saturation curve. The TAAR1 radioligand ^3[H]-(S)-4-[(ethyl-phenyl-amino)-methyl]-4,5-dihydro-oxazol-2-ylamine (described in WO 2008/098857) was used at a concentration equal to the calculated Kd value, that was usually around 0.7 nM, resulting in the binding of approximately 0.5% of the radioligand and a specific binding representing approximately 70% of the total binding. Nonspecific binding was defined as the amount of ^3[H]-(S)-4-[(ethyl-phenyl-amino)-methyl]-4,5-dihydro-oxazol-2-ylamine bound in the presence of 10 μM unlabeled ligand. All compounds were tested at a broad range of concentrations ([…]) in duplicates. The test compounds (20 […]μl/well) were transferred into a 96 deep well plate (TreffLab), and 180 μl of HEPES-NaOH (20 mM, pH 7.4) containing MgCl2 (10 mM) and CaCl2 (2 mM) (binding buffer), 300 μl of the radioligand ^3[H]-(S)-4-[(ethyl-phenyl-amino)-methyl]-4,5-dihydro-oxazol-2-ylamine at a concentration of 3.3×Kd in nM and 500 μl of the membranes (resuspended at […]) added. The 96 deep well plates were incubated for 1 hr at 4° C. Incubations were terminated by rapid filtration through Unifilter-96 plates (Packard Instrument Company) and glass filters GF/C (Perkin Elmer) presoaked for 1 hr in polyethylenimine (0.3%) and washed 3 times with 1 ml of cold binding buffer. […]

rat TAAR1 = rat TAAR1 (Rattus norvegicus (Rat), UniProt Q923Y9); assay: Radioligand binding assay on rat TAAR1; settings: rat TAAR1 (second value of the cell); membranes of HEK-293 cells stably expressing rat TAAR1; read-out: Ki (μM) mouse/rat
Method: as §1, §2, §3
Radioligand Binding Assay on Rat TAAR1
as §4
HEK-293 cells stably expressing rat TAAR1 were maintained at 37° C. and 5% CO2 in DMEM high glucose medium, containing fetal calf serum (10%, heat inactivated for 30 min at 56° C.), penicillin/streptomycin (1%), and 375 μg/ml geneticin (Gibco). Cells were released from culture flasks using trypsin/EDTA, harvested, washed twice with ice-cold PBS (without Ca^2+ and Mg^2+), pelleted at 1,000 rpm for 5 min at 4° C., frozen and stored at −80° C. Frozen pellets were suspended in 20 ml HEPES-NaOH (20 mM, pH 7.4) containing 10 mM EDTA and homogenized with a Polytron (PT 6000, Kinematica) at 14,000 rpm for 20 s. The homogenate was centrifuged at 48,000×g for 30 min at 4° C. Subsequently, the supernatant was removed and discarded, and the pellet resuspended in 20 ml HEPES-NaOH (20 mM, pH 7.4) containing 0.1 mM EDTA using the Polytron (20 s at 14,000 rpm). This procedure was repeated and the final pellet resuspended in HEPES-NaOH containing 0.1 mM EDTA and homogenized using the Polytron. Typically, aliquots of 2 ml membrane portions were stored at −80° C. With each new membrane batch the dissociation constant (Kd) was determined via a saturation curve. […] Nonspecific binding was defined as the amount of ^3[H]-(S)-4-[(ethyl-phenyl-amino)-methyl]-4,5-dihydro-oxazol-2-ylamine bound in the presence of 10 μM unlabeled ligand. All compounds were tested at a broad range of concentrations ([…]) in duplicates. The test compounds (20 […]μl/well) were transferred into a 96 deep well plate (TreffLab), and 180 μl of HEPES-NaOH (20 mM, pH 7.4) containing MgCl2 (10 mM) and CaCl2 (2 mM) (binding buffer), 300 μl of the radioligand ^3[H]-(S)-4-[(ethyl-phenyl-amino)-methyl]-4,5-dihydro-oxazol-2-ylamine at a concentration of 3.3×Kd in nM and 500 μl of the membranes (resuspended at 50 μg protein per ml) added. The 96 deep well plates were incubated for 1 hr at 4° C. Incubations were terminated by rapid filtration through Unifilter-96 plates (Packard Instrument Company) and glass filters GF/C (Perkin Elmer) presoaked for 1 hr in polyethylenimine (0.3%) and washed 3 times with 1 ml of cold binding buffer. After addition of 45 μl of Microscint 40 (PerkinElmer) the Unifilter-96 plate was sealed and after 1 hr the ratioactivity counted using a TopCount Microplate Scintillation Counter (Packard Instrument Company).

Sequence of rat TAAR1 (Q923Y9 whole entry): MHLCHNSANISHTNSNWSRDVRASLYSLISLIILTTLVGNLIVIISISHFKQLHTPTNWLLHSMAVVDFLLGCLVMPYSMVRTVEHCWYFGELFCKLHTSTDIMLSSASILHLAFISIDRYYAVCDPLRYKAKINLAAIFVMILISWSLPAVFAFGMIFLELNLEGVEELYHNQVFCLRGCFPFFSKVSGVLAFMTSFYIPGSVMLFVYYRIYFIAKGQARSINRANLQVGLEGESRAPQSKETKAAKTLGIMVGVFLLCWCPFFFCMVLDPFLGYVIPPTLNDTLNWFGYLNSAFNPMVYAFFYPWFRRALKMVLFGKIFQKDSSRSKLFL
Sequence of mouse TAAR1 (Q923Y8 whole entry): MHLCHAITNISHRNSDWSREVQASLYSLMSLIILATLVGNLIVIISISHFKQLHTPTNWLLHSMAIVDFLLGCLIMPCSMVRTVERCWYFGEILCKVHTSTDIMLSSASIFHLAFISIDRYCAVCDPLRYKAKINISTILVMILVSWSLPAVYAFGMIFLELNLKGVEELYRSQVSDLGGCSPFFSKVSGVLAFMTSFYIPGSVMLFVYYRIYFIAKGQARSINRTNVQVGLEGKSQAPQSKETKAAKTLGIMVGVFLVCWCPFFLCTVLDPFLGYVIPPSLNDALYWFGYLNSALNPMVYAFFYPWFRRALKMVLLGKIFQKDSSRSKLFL

Row | SMILES | Ki (mouse TAAR1) | Ki (rat TAAR1)
1 | Clc1ccc(Nc2ccc(C34CCC(CO3)NC4)cc2)nc1 (racemic) [Example 3, (RS)-5-Chloro-N-[4-(5-oxa-2-azabicyclo[2.2.2]octan-4-yl)phenyl]pyridin-2-amine] | 0.0141 µM | 2.46 µM
2 | O=C(Nc1ccc(C23CCC(CO2)NC3)cc1)c1ccc(OCC(F)(F)F)nc1 (racemic) [Example 13, (RS)—N-[4-(5-Oxa-2-azabicyclo[2.2.2]octan-4-yl)phenyl]-6-(2,2,2-trifluoroethoxy)pyridine-3-carboxamide] | 0.0304 µM | 0.624 µM
3 | O=C(Nc1ccc(C23CCC(CO2)NC3)cc1)c1cnc(C2CC2)nc1 (racemic) [Example 14, (RS)-2-Cyclopropyl-N-[4-(5-oxa-2-azabicyclo[2.2.2]octan-4-yl)phenyl]pyrimidine-5-carboxamide] | 0.136 µM | > 10 µM
4 | CCc1ncc(C(=O)Nc2ccc(C34CCC(CO3)NC4)cc2)cn1 (racemic) [Example 35, (RS)-2-Ethyl-N-[4-(5-oxa-2-azabicyclo[2.2.2]octan-4-yl)phenyl]pyrimidine-5-carboxamide] | 0.153 µM | 10 µM
5 | O=C(Nc1ccc(C23CCC(CO2)NC3)cc1)c1ccnc(C(F)(F)F)c1 (racemic) [Example 37, (RS)—N-[4-(5-Oxa-2-azabicyclo[2.2.2]octan-4-yl)phenyl]-2-(trifluoromethyl)pyridine-4-carboxamide] | 0.0377 µM | 1.44 µM
6 | FC(F)(F)c1cnc(Nc2ccc(C34CCC(CO3)NC4)cc2)cn1 (racemic) [Example 64, (RS)—N-[4-(5-Oxa-2-azabicyclo[2.2.2]octan-4-yl)phenyl]-5-(trifluoromethyl)pyrazin-2-amine] | 0.03 µM | 7.68 µM
7 | FC(F)(F)c1cnc(Nc2ccc(C34CCC(CO3)NC4)cc2)nc1 (racemic) [Example 65, (RS)—N-[4-(5-Oxa-2-azabicyclo[2.2.2]octan-4-yl)phenyl]-5-(trifluoromethyl)pyrimidin-2-amine] | 0.122 µM | 3.84 µM
8 | O=C(Nc1ccc(Cl)cc1)Nc1ccc(C[C@]23CN[C@H](CO2)C3)cc1 [Example 1, 1-(4-Chlorophenyl)-3-[4-[[(1S,4S)-5-oxa-2-azabicyclo[2.2.1]heptan-4-yl]methyl]phenyl]urea] | 1.82 µM | 1150 µM
9 | O=C(Nc1ccc(C[C@]23CN[C@H](CO2)C3)cc1)Nc1cccc(Cl)c1 [Example 2, 1-(3-Chlorophenyl)-3-[4-[[(1S,4S)-5-oxa-2-azabicyclo[2.2.1]heptan-4-yl]methyl]phenyl]urea] | 1.35 µM | 0.0822 µM
10 | Clc1ccc(Nc2ccc([C@]34CN[C@H](CO3)C4)cc2)nc1 [Example 7, 5-Chloro-N-[4-[(1S,4R)-5-oxa-2-azabicyclo[2.2.1]heptan-4-yl]phenyl]pyridin-2-amine] | 0.0414 µM | 0.309 µM

Continued, values first:

Row | Ki (mouse TAAR1) | Ki (rat TAAR1) | SMILES
11 | 0.0111 µM | 0.328 µM | FC(F)(F)c1ccc(Nc2ccc(C34CCC(CO3)NC4)cc2)nc1 (racemic) [Example 4, (RS)—N-[4-(5-Oxa-2-azabicyclo[2.2.2]octan-4-yl)phenyl]-5-(trifluoromethyl)pyridin-2-amine]
12 | 0.0028 µM | 0.662 µM | O=C(Nc1ccc(C23CCC(CO2)NC3)cc1)c1ccc(Cl)cc1 (racemic) [Example 5, (RS)-4-Chloro-N-[4-(5-oxa-2-azabicyclo[2.2.2]octan-4-yl)phenyl]benzamide]
13 | 0.019 µM | 1.22 µM | O=C(Nc1ccc(C23CCC(CO2)NC3)cc1)c1ccc(OCC2CC2)cc1 (racemic) [Example 11, (RS)-4-(Cyclopropylmethoxy)-N-[4-(5-oxa-2-azabicyclo[2.2.2]octan-4-yl)phenyl]benzamide]
14 | 0.0219 µM | 7.06 µM | CCOc1ccc(C(=O)Nc2ccc(C34CCC(CO3)NC4)cc2)cn1 (racemic) [Example 12, (RS)-6-Ethoxy-N-[4-(5-oxa-2-azabicyclo[2.2.2]octan-4-yl)phenyl]pyridine-3-carboxamide]
15 | 0.0135 µM | 0.0973 µM | CCCc1n[nH]c(C(=O)Nc2ccc(C34CCC(CO3)NC4)cc2)c1Cl (racemic) [Example 34, (RS)-4-Chloro-N-[4-(5-oxa-2-azabicyclo[2.2.2]octan-4-yl)phenyl]-3-propyl-1H-pyrazole-5-carboxamide]
16 | 0.005 µM | 0.0465 µM | O=C(Nc1ccc(Cl)cc1)Nc1ccc(C23CCC(CO2)NC3)cc1 (racemic) [Example 66, (RS)-1-(4-Chlorophenyl)-3-[4-(5-oxa-2-azabicyclo[2.2.2]octan-4-yl)phenyl]urea]
17 | 0.0137 µM | 0.0263 µM | O=C(Nc1ccc(C(F)(F)F)cc1)Nc1ccc(C23CCC(CO2)NC3)cc1 (racemic) [Example 67, (RS)-1-[4-(5-Oxa-2-azabicyclo[2.2.2]octan-4-yl)phenyl]-3-[4-(trifluoromethyl)phenyl]urea]
18 | 0.0119 µM | 0.0681 µM | O=C(Nc1ccc(C23CCC(CO2)NC3)cc1)Nc1cccc(Cl)c1 (racemic) [Example 68, (RS)-1-(3-Chlorophenyl)-3-[4-(5-oxa-2-azabicyclo[2.2.2]octan-4-yl)phenyl]urea]
19 | 0.0044 µM | 0.797 µM | O=C(Nc1ccc(C23CCC(CO2)NC3)cc1)c1cccc(Cl)c1 (centres unmarked) [Example 6, 3-Chloro-N-[4-(5-oxa-2-azabicyclo[2.2.2]octan-4-yl)phenyl]benzamide]
